Values quoted from earlier work as cited in patent US20080015265A1, “Methods of treating obesity using satiety factors” (priority 2006, published 2008).
Like-named read-outs stand apart in the source and are kept apart here. Where no end group is shown, it is not given here.

Key:
[1] = species not stated
[2] = human subjects; peripheral or intravenous administration
[3] = for food intake (feeding) / weight gain: rats and/or mice
[4] = for food intake: several species including humans
[5] = test system: hepatocyte

O=C1N[C@@H](Cc2cnc[nH]2)C(=O)N2CCC[C@@H]12 [cyclo-his-pro]
food intake [1]: reduce food intake

CC[C@H](C)[C@H](NC(=O)[C@@H]1CCCN1C(=O)CNC(=O)[C@H](Cc1ccccc1)NC(=O)[C@H](CC(N)=O)NC(=O)[C@H](CC(N)=O)NC(=O)[C@H](CO)NC(=O)[C@H](CO)NC(=O)[C@H](Cc1c[nH]cn1)NC(=O)[C@@H](NC(=O)[C@H](CC(C)C)NC(=O)[C@H](Cc1ccccc1)NC(=O)[C@H](CC(N)=O)NC(=O)[C@H](C)NC(=O)[C@H](CC(C)C)NC(=O)[C@H](CCCNC(=N)N)NC(=O)[C@H](CCC(N)=O)NC(=O)[C@@H](NC(=O)[C@H](C)NC(=O)[C@@H]1CSSC[C@H](NC(=O)[C@@H](N)CCCCN)C(=O)N[C@@H](CC(N)=O)C(=O)N[C@@H]([C@@H](C)O)C(=O)N[C@@H](C)C(=O)N[C@@H]([C@@H](C)O)C(=O)N1)[C@@H](C)O)C(C)C)C(=O)N[C@@H](CC(C)C)C(=O)N1CCC[C@H]1C(=O)N1CCC[C@H]1C(=O)N[C@H](C(=O)N[C@@H](CC(N)=O)C(=O)N[C@H](C(=O)NCC(=O)N[C@@H](CO)C(=O)N[C@@H](CC(N)=O)C(=O)N[C@H](C(=O)N[C@@H](Cc1ccc(O)cc1)C(N)=O)[C@@H](C)O)C(C)C)[C@@H](C)O [pramlintide, reference compound]
body weight (weight loss / weight gain) [1]: sustained weigh loss | food intake [1]: decreased food intake

C=CC1=C(C)c2cc3[nH]c(cc4nc(cc5[nH]c(cc1n2)c(C)c5CCC(=O)O)C(CCC(=O)O)=C4C)c(C)c3C=C [protoporphyrin]
body weight (weight loss / weight gain) [1]: decrease food intake and body weight | food intake [1]: decrease food intake

Glucagon-like peptide-1 (7-36)-amide (HAEGTFTSDVSSYLEGQAAKEFIAWLVKGR-NH2; UniProt P01275 98-127, looked up) [GLP-1]
food intake [2]: reduce food intake | hunger / appetite [2]: suppress hunger

NPW: ligand for orphan G protein-coupled receptors (WYKHVASPRYHTVGRAAGLLMGL; Neuropeptide W-23; UniProt Q8N729 33-55, looked up)
food intake (animals): stimulate food intake

PYY3-36
food intake [2]: significant food intake reduction | food intake (feeding) [3]: inhibits food intake | weight gain [3]: reduced weigh gain

amylin (KCNTATCATQRLANFLVHSSNNFGAILSSTNVGSNTY; not fully specified (C-terminus, bridges); cysteine pairing not given here; UniProt P10997 34-70, looked up) [37 amino acid peptide released by the β cells of the pancreas]
body weight (weight loss / weight gain) [1]: sustained weigh loss | food intake [1]: decreased food intake

beacon
food intake (animals): stimulate food intake | weight gain (animals): stimulate food intake and weight gain

bombesin [bombesin or bombesin-like peptide]
food intake [4]: Feed suppression

corticotropin-releasing hormone (SEEPPISLDLTFHLLREVLEMARAEQLAQQAHSNRKLMEII; ends and bridges not checked; UniProt P06850 154-194, looked up)
food intake (animals): reduce food intake

dynorphin
food intake (animals): stimulate food intake

enterostatin
dietary fat preference ([3]; mammals, demonstrated in rodent studies): reduce dietary fat preference

galanin (GWTLNSAGYLLGPHAVGNHRSFSDKNGLTS; Galanin; UniProt P22466 33-62, looked up)
food intake (feeding) [3]: stimulate food intake

galanin-like peptide (APAHRGRGGWTLNSAGYLLGPVLHLPQMGDQDGKRETALEILDLWKAIDGLPYSHPPQPS; Galanin-like peptide; UniProt Q9UBC7 25-84, looked up)
food intake (feeding) [3]: stimulate food intake

ghrelin (GSSFLSPEHQRVQQRKESKKPPAKLQPR; ends and bridges not checked; also: octanoyl acylation; UniProt Q9UBU3 24-51, looked up) [28 amino acid acylated peptide produced mainly by the stomach]
body weight ([4]; rodents and persons): increase body weight | fat oxidation ([4]; rodents and persons): reducing fat oxidation | food intake [4]: stimulating food intake

growth hormone-releasing hormone (YADAIFTNSYRKVLGQLSARKLLQDIMSRQQGESNQERGARARL; ends and bridges not checked; UniProt P01286 32-75, looked up)
body weight (weight loss / weight gain) [1]: stimulate food intake and weight gain | food intake [1]: stimulate food intake

hypocretins/orexins
appetite ([3]; rats): stimulate appetite | food intake (feeding) [3]: stimulate appetite and food intake

leptin
body weight (weight loss / weight gain) [1]: decrease food intake and body weigh | food intake [1]: decrease food intake

motilin (FVPIFTYGELQRMQEKERNKGQ; Motilin; UniProt P12872 26-47, looked up) [polypeptide hormone secreted by Mo cells of the small intestine]
gastrointestinal motility [1]: increase the gastrointestinal motility

neuropeptide B (WYKPAAGHSSYSVGRAAGLLSGLRRSPYA; Neuropeptide B-29; UniProt Q8NG41 25-53, looked up) [ligand for orphan G protein-coupled receptors]
food intake (animals): stimulate food intake

neuropeptide K (DADSSIEKQVALLKALYGHGQISHKRHKTDSFVGLM; ends and bridges not checked; UniProt P20366 72-107, looked up)
food intake (animals): inhibit food intake

neuropeptide Y
food intake (animals): stimulate food intake

neurotensin
food intake [1]: decrease food intake

obestatin
jejunal contraction ([3]; rats): inhibited jejunal contraction | food intake (feeding) [3]: suppressed food intake | weight gain [3]: decreased body weigh gain

oxyntomodulin (HSQGTFTSDYSKYLDSRRAQDFVQWLMNTKRNRNNIA; Oxyntomodulin; UniProt P01275 53-89, looked up) [37 amino acid peptide, product of the proglucagon gene]
energy intake ([4]; administered to rodents and humans): reduce energy intake

oxytocin
food intake (animals): increase food intake

pancreatic peptide (APLEPVYPGDNATPEQMAQYAADLRRYINMLTRPRY; ends and bridges not checked; UniProt P01298 30-65, looked up) [PP, 36-amino acid peptide of the NPY family produced in the pancreatic islets]
food intake [2]: sustained decrease in appetite and food intake | hunger / appetite [2]: sustained decrease in appetite | food intake (feeding) [3]: reduces food intake | weight gain [3]: reduces food intake and weight gain

prolactin-releasing peptide
food intake (animals): increase food intake

somatostatin (AGCKNFFWKTFTSC; ends and bridges not checked; cysteine pairing not given here; UniProt P61278 103-116, looked up)
food intake (animals): reduce food intake

urocortin (DNPSLSIDLTFHLLRTLLELARTQSQRERAEQNRIIFDSV; ends and bridges not checked; UniProt P55089 83-122, looked up)
food intake (feeding) [3]: reduces feeding | drinking ([3]; rats, infused): reduces feeding and drinking

vasopressin (CYFQNCPRG; ends and bridges not checked; cysteine pairing not given here; UniProt P01185 20-28, looked up)
food intake (animals): reduce food intake

β casomorphin
food intake (animals with a high fat diet): increase food intake | food intake (animals with a low fat diet): decrease food intake

B1: apolipoprotein A-IV (protein, UniProt P06727 21-396, looked up)
Apolipoprotein A-IV: EVSADQVATVMWDYFSQLSNNAKEAVEHLQKSELTQQLNALFQDKLGEVNTYAGDLQKKLVPFATELHERLAKDSEKLKEEIGKELEELRARLLPHANEVSQKIGDNLRELQQRLEPYADQLRTQVSTQAEQLRRQLTPYAQRMERVLRENADSLQASLRPHADELKAKIDQNVEELKGRLTPYADEFKVKIDQTVEELRRSLAPYAQDTQEKLNHQLEGLTFQMKKNAEELKARISASAEELRQRLAPLAEDVRGNLRGNTEGLQKSLAELGGHLDQQVEEFRRRVEPYGENFNKALVQQMEQLRQKLGPHAGDVEGHLSFLEKDLRDKVNSFFSTFKEKESQDKTLSLPELEQQQEQQQEQQQEQVQMLAPLES
notes: non-gut peptide satiety factor
food intake (animals): dose dependent reduction of food intake

B2: ciliary neurotrophic factor (protein, UniProt P26441 1-200, looked up)
Ciliary neurotrophic factor: MAFTEHSPLTPHRRDLCSRSIWLARKIRSDLTALTESYVKHQGLNKNINLDSADGMPVASTDQWSELTEAERLQENLQAYRTFHVLLARLLEDQQVHFTPTEGDFHQAIHTLLLQVAAFAYQIEELMILLEYKIPRNEADGMPINVGDGGLFEKKLWGLKVLQELSQWTVRSIHDLRFISSHQTGIPARGSHYIANNKKM
body weight (weight loss / weight gain) [1]: cause weigh loss

B3: nesfatin (protein, UniProt P80303 25-106, looked up)
Nesfatin-1: VPIDIDKTKVQNIHPVESAKIEPPDTGLYYDEYLKQVIDVLETDKHFREKLQKADIEEIKSGRLSKELDLVSHHVRTKLDEL
modifications: Nesfatin-1
notes: produced by the brain
food intake (animals): reduce food intake in a dose-dependent manner

B4: cholecystokinin (peptide, UniProt P06307 21-115, looked up)
Cholecystokinin: QPVPPADPAGSGLQRAEEAPRRQLRVSQRTDGESRAHLGALLARYIQQARKAPSGRMSIVKNLQNLDPSHRISDRDYMGWMDFGRRSAEEYEYPS
notes: gut peptide released mainly in response to dietary fat
food intake [4]: dose-dependent inhibition of food intake

B5: adiponectin (protein, UniProt Q15848 19-244, looked up)
Adiponectin: ETTTQGPGVLLPLPKGACTGWMAGIPGHPGHNGAPGRDGRDGTPGEKGEKGDPGLIGPKGDIGETGVPGAEGPRGFPGIQGRKGEPGEGAYVYRSAFSVGLETYVTIPNMPIRFTKIFYNQQNHYDGSTGKFHCNIPGLYYFAYHITVYMKDVKVSLFKKDKAMLFTYDQYQENNVDQASGSVLLHLEVGDQVWLQVYGEGERNGLYADNDNDSTFTGFLLYHDTN
notes: as for B1
sensitivity of the hepatocyte to insulin [5]: increase the sensitivity of the hepatocyte to insulin
